According to US20250179066A1, “ZWITTERIONIC ANTIBACTERIAL COMPOUNDS” (Hoffmann-La Roche Inc., priority 2022, published 2025):
Read-outs that look alike come from different tables or passages of the source.

System: Acinetobacter baumannii ATCC17961
Experiment: Antimicrobial susceptibility testing: 90% growth inhibitory concentration (IC90) determination
Type: cell-based
Conditions: 90% growth inhibitory concentration against Acinetobacter baumannii ATCC17961, Iso-Sensitest broth, OD 600 nm over 16 h, read-out: ATCC 17961 IC90
In short: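 OD600 monitored each minute over 16 h at 35±2° C for bacteria (~5×10^5 CFU/mL final) in Iso-Sensitest medium with 10-point twofold compound series (e.g. 10-0.0195 μM final). Concentration giving 90% growth inhibition in log phase reported as IC90.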

[1] = Acinetobacter baumannii, ATCC17961, 16 h

Row | IC90 [1] [nM] | SMILES | IC90 [nM]
1 | 760 | CNc1ccc(-n2cc(-c3cnc(C(=O)Nc4ccc(C(=O)N5CCN(C(=O)C6CC[N+](CC(=O)O)(CC7CNC7)CC6)CC5)c(Cl)c4)n3C)c(C(F)(F)F)n2)cn1 (centres unmarked) [Example 68, 2-[1-(azetidin-3-ylmethyl)-4-[4-[2-chloro-4-[[1-methyl-5-[1-[6-(methylamino)-3-pyridyl]-3-(trifluoromethyl)pyrazol-4-yl]imidazole-2-carbonyl]amino]benzoyl]piperazine-1-carbonyl]piperidin-1-ium-1-yl]acetic acid. 1:1 2,2,2-trifluoroacetate] | –
2 | 670 | Cn1c(-c2cn(-c3ccc4c(n3)CCN4)nc2C(F)(F)F)cnc1C(=O)Nc1ccc(C(=O)N2CCN(C(=O)C3CC[N+](CC(=O)O)(CC4CNC4)CC3)CC2)c(Cl)c1 (centres unmarked) [Example 61, 2-[1-(azetidin-3-ylmethyl)-4-[4-[2-chloro-4-[[5-[1-(2,3-dihydro-1H-pyrrolo[3,2-b]pyridin-5-yl)-3-(trifluoromethyl)pyrazol-4-yl]-1-methyl-imidazole-2-carbonyl]amino]benzoyl]piperazine-1-carbonyl]piperidin-1-ium-1-yl]acetic acid. 1:1 2,2,2-trifluoroacetate] | –
3 | 95.8 | Cn1c(-c2cn(-c3cc4[nH]cc(C(=O)N5CCC(F)(F)CC5)c4cn3)nc2C(F)(F)F)cnc1C(=O)Nc1ccc(C(=O)N2CCN(C(=O)[C@H]3CC[N@+](CC(=O)O)(CC4CNC4)CC3)CC2)c(Cl)c1 [Example 179, cis-2-[1-(azetidin-3-ylmethyl)-4-[4-[2-chloro-4-[[5-[1-[3-(4,4-difluoropiperidine-1-carbonyl)-1H-pyrrolo[3,2-c]pyridin-6-yl]-3-(trifluoromethyl)pyrazol-4-yl]-1-methyl-imidazole-2-carbonyl]amino]benzoyl]piperazine-1-carbonyl]piperidin-1-ium-1-yl]acetic acid. 1:1 2,2,2-trifluoroacetate] | –
4 | 64.2 | Cn1c(-c2cn(-c3ccc4[nH]c(CN)cc4n3)nc2C(F)(F)F)cnc1C(=O)Nc1ccc(C(=O)N2CCN(C(=O)[C@H]3CC[N@+](CC(=O)O)(CC4CNC4)CC3)CC2)c(Cl)c1 [Example 184, cis-2-[4-[4-[4-[[5-[1-[2-(aminomethyl)-1H-pyrrolo[3,2-b]pyridin-5-yl]-3-(trifluoromethyl)pyrazol-4-yl]-1-methyl-imidazole-2-carbonyl]amino]-2-chloro-benzoyl]piperazine-1-carbonyl]-1-(azetidin-3-ylmethyl)piperidin-1-ium-1-yl]acetic acid;formate] | –
5 | 295 | Cn1c(-c2cn(-c3cc4[nH]c(C(=O)NCCO)cc4cn3)nc2C(F)(F)F)cnc1C(=O)Nc1ccc(C(=O)N2CCN(C(=O)[C@H]3CC[N@+](CC(=O)O)(CC4CNC4)CC3)CC2)c(Cl)c1 [Example 115, cis-2-[1-(azetidin-3-ylmethyl)-4-[4-[2-chloro-4-[[5-[1-[2-(2-hydroxyethylcarbamoyl)-1H-pyrrolo[3,2-c]pyridin-6-yl]-3-(trifluoromethyl)pyrazol-4-yl]-1-methyl-imidazole-2-carbonyl]amino]benzoyl]piperazine-1-carbonyl]piperidin-1-ium-1-yl]acetic acid. 1:1 2,2,2-trifluoroacetate] | –
6 | 527 | Cn1c(-c2cn(-c3cc4[nH]c(C(=O)NC5CCNC5=O)cc4cn3)nc2C(F)(F)F)cnc1C(=O)Nc1ccc(C(=O)N2CCN(C(=O)[C@H]3CC[N@+](CC(=O)O)(CC4CNC4)CC3)CC2)c(Cl)c1 (stereo partly drawn) [Example 120, cis-2-[1-(azetidin-3-ylmethyl)-4-[4-[2-chloro-4-[[5-[1-[2-[(2-ketopyrrolidin-3-yl)carbamoyl]-1H-pyrrolo[3,2-c]pyridin-6-yl]-3-(trifluoromethyl)pyrazol-4-yl]-1-methyl-imidazole-2-carbonyl]amino]benzoyl]piperazine-1-carbonyl]piperidin-1-ium-1-yl]acetic acid. 1:1 2,2,2-trifluoroacetate] | –

More lines, now with the values behind:

Row | SMILES | IC90 [1] [nM] | IC90 [nM]
7 | Cn1c(-c2cn(-c3ccc(N)cn3)nc2C(F)(F)F)cnc1C(=O)Nc1ccc(C(=O)N2CCN(C(=O)CCC[N+](CCCCN)(CCCCN)CC(=O)O)CC2)c(Cl)c1 [Example 20, bis(4-aminobutyl)-[4-[4-[4-[[5-[1-(5-amino-2-pyridyl)-3-(trifluoromethyl)pyrazol-4-yl]-1-methyl-imidazole-2-carbonyl]amino]-2-chloro-benzoyl]piperazino]-4-keto-butyl]-(carboxymethyl)ammonium. 1:1 2,2,2-trifluoroacetic acid. 1:1 2,2,2-trifluoroacetate] | – | 300
8 | Cc1cc(NC(=O)c2ncc(-c3cn(-c4ccc5[nH]c(CCO)cc5n4)nc3C(F)(F)F)n2C)ccc1C(=O)N1CCN(C(=O)[C@H]2CC[N@@+](CCCN)(CC(=O)O)CC2)CC1 [Example 127, cis-2-[1-(3-aminopropyl)-4-[4-[4-[[5-[1-[2-(2-hydroxyethyl)-1H-pyrrolo[3,2-b]pyridin-5-yl]-3-(trifluoromethyl)pyrazol-4-yl]-1-methyl-imidazole-2-carbonyl]amino]-2-methyl-benzoyl]piperazine-1-carbonyl]piperidin-1-ium-1-yl]acetic acid. 1:1 2,2,2-trifluoroacetate] | 364 | –
9 | Cn1c(-c2cn(-c3ccc(NCC4CCNCC4)cn3)nc2C(F)(F)F)cnc1C(=O)Nc1ccc(C(=O)N2CCN(C(=O)C3CC[N+](CC(=O)O)(CC4CNC4)CC3)CC2)c(Cl)c1 (centres unmarked) [Example 5, 2-[1-(azetidin-3-ylmethyl)-4-[4-[2-chloro-4-[[1-methyl-5-[1-[5-(4-piperidylmethylamino)-2-pyridyl]-3-(trifluoromethyl)pyrazol-4-yl]imidazole-2-carbonyl]amino]benzoyl]piperazine-1-carbonyl]piperidin-1-ium-1-yl]acetic acid. 1:1 2,2,2-trifluoroacetate] | 590 | –
10 | Cn1c(-c2cn(-c3cccc(N)n3)nc2C(F)(F)F)cnc1C(=O)Nc1ccc(C(=O)N2CCN(C(=O)[C@H]3CC[N@+](CC(=O)O)(CC4CNC4)CC3)CC2)c(Cl)c1 [Example 192, cis-2-[4-[4-[4-[[5-[1-(6-amino-2-pyridyl)-3-(trifluoromethyl)pyrazol-4-yl]-1-methyl-imidazole-2-carbonyl]amino]-2-chloro-benzoyl]piperazine-1-carbonyl]-1-(azetidin-3-ylmethyl)piperidin-1-ium-1-yl]acetic acid. 1:1 2,2,2-trifluoroacetate] | 265 | –
11 | Cn1c(-c2cn(-c3ccc(NCCCN)cn3)nc2C(F)(F)F)cnc1C(=O)Nc1ccc(C(=O)N2CCN(C(=O)[C@H]3CC[N@+](CC(=O)O)(CC4CNC4)CC3)CC2)c(Cl)c1 [Example 15, cis-2-[4-[4-[4-[[5-[1-[5-(3-aminopropylamino)-2-pyridyl]-3-(trifluoromethyl)pyrazol-4-yl]-1-methyl-imidazole-2-carbonyl]amino]-2-chloro-benzoyl]piperazine-1-carbonyl]-1-(azetidin-3-ylmethyl)piperidin-1-ium-1-yl]acetic acid. 1:1 2,2,2-trifluoroacetic acid. 1:1 2,2,2-trifluoroacetate] | 210 | –
